Source: patent publication US6350764B2, “Heteroaryl aminoguanidines and alkoxyguanidines and their use as protease inhibitors” (3-Dimensional Pharmaceuticals, Inc., priority 1997, dated 2002)
Where a name gives a salt, the structure may show the parent alone.

Key:
Format in all cases: biochemical
bovine α-chymotrypsin = target: T1, bovine α-chymotrypsin (Bos taurus, UniProt P00766); test: In vitro inhibition of purified enzymes: chymotrypsin, hydrolysis of N-succinyl-Ala-Ala-Pro-Phe-p-nitroanilide; conditions: read-out: % Inhibition Chymo.
T1 construct: Bovine α-chymotrypsin (Sigma C4129); purchased Sigma C4129
Excerpt: (§1) Reagents: All buffer salts were obtained from Sigma Chemical Company (St. Louis, Mo.), and were of the highest purity available. The enzyme substrates, N-benzoyl-Phe-Val-Arg-p-nitroaniide (Sigma B7632) N-benzoyl-Ile-Glu-Gly-Arg-p-nitroanilide hydrochloride (Sigma B2291), N-p-Tosyl-Gly-Pro-Lys-p-nitroanilide (Sigma T6140), N-succinyl-Ala-Ala-Pro-Phe-p-nitroanilide (Sigma S7388) and N-CBZ-Val-Gly-Arg-p-nitroanilide (Sigma C7271) were obtained from Sigma. N-succinyl-Ala-Ala-Pro-Arg-p-nitroanilide (BACHEM L-1720) and N-succinyl-Ala-Ala-Pro-Val-p-nitroanilide (BACHEM L-1770) were obtained from BACHEM (King of Prussia, Pa.).
(§2) Human α-thrombin, human factor Xa and human plasmin were obtained from Enzyme Research Laboratories (South Bend, Id.). Bovine α-chymotrypsin (Sigma C4129), bovine trypsin (Sigma T8642) and human kidney cell urokinase (Sigma U5004) were obtained from Sigma. Human leukocyte elastase was obtained from Elastin Products (Pacific, Mo.).
(§3) Ki Determinations: All assays are based on the ability of the test compound to inhibit the enzyme catalyzed hydrolysis of a peptide p-nitroanilide substrate. In atypical Ki determination, substrate is prepared in DMSO, and diluted into an assay buffer consisting of 50 mM HEPES, 200 mM NaCl, pH 7.5. The final concentrations for each of the substrates is listed below. In general, substrate concentrations are lower than the experimentally determined value for Km. Test compounds are prepared as a 1.0 mg/ml solution in DMSO. Dilutions are prepared in DMSO yielding 8 final concentrations encompassing a 200 fold concentration range. Enzyme solutions are prepared at the concentrations listed below in assay buffer.
(§4) In a typical Ki determination, into each well of a 96 well plate is pipetted 280 mL of substrate solution, 10 mL of test compound solution, and the plate allowed to thermally equilibrate at 37° C. in a Molecular Devices plate reader for>15 minutes. Reactions were initiated by the addition of a […] aliquot of enzyme and the absorbance increase at 405 nm is recorded for 15 minutes. Data corresponding to less than 10% of the total substrate hydrolysis were used in the calculations. The ratio of the velocity (rate of change in absorbance as a function of time) for a sample containing no test compound is divided by the velocity of a sample containing test compound, and is plotted as a function of test compound concentration. The data are fit to a linear regression, and the value of the slope of the line calculated. The inverse of the slope is the experimentally determined Ki value.
Chymotrypsin: Chymotrypsin activity was assessed as the ability to hydrolyze N-succinyl-Ala-Ala-Pro-Phe-p-nitroanilide. […] Final DMSO concentration was 4.3%. Purified bovine chymotrypsin was diluted into assay buffer to a concentration of 81 nM. Final reagent concentrations were: [Chymotrypsin]=2.7 nM, [N-succinyl-Ala-Ala-Pro-Phe-p-nitroanilide]=14 mM.

human plasmin = target: T2, human plasmin (Homo sapiens, UniProt P00747); test: In vitro inhibition of purified enzymes: plasmin, hydrolysis of N-p-Tosyl-Gly-Pro-Lys-p-nitroanilide
T2 construct: Purified human plasmin was diluted into assay buffer; purchased Enzyme Research Laboratories (South Bend)
T2 sequence (P00747 581-810 limits assumed): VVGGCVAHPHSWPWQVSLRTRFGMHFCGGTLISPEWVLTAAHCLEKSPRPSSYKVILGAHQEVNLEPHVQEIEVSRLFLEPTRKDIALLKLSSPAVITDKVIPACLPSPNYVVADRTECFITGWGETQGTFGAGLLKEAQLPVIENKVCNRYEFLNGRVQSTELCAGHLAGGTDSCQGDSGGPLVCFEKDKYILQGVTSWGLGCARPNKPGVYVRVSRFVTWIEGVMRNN
T2 sequence (P00747 97-580 partner limits assumed): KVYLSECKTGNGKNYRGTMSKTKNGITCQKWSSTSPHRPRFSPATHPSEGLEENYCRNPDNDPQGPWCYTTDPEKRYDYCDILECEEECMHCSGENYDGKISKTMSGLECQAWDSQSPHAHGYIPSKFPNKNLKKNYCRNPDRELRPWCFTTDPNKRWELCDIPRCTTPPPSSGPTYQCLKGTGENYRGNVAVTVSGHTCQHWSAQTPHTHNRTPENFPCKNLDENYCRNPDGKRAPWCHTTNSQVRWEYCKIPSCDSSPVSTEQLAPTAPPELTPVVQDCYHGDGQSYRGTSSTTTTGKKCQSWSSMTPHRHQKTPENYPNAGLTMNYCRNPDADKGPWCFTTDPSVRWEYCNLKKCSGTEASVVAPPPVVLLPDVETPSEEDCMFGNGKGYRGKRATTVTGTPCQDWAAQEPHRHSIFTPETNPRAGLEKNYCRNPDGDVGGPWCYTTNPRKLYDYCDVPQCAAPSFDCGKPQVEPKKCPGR
Excerpt: as §1, §2, §3, §4
Plasmin: Plasmin activity was assessed as the ability to hydrolyze the N-p-Tosyl-Gly-Pro-Lys-p-nitroanilide. Substrate solutions were prepared at a concentration of 37 mM (37 mM<<Km=243 mM) in assay buffer. Final DMSO concentration was 4.3%. Purified human plasmin was diluted into assay buffer to a concentration of 240 nM. Final reagent concentrations were: [Plasmin]=8 nM, [N-p-Tosyl-Gly-Pro-Lys-p-nitroanilide]=37 mM.

human α-thrombin = target: T3, human α-thrombin (Homo sapiens, UniProt P00734); test: In vitro inhibition of purified enzymes: thrombin, hydrolysis of N-succinyl-Ala-Ala-Pro-Arg-p-nitroanilide; conditions: 37° C., pH 7.5
T3 construct: Purified human a-thrombin was diluted into assay buffer; purchased Enzyme Research Laboratories (South Bend)
Excerpt: as §1, with “Sigma.” for “Sigma. N-succinyl-Ala-Ala-Pro-Arg-p-nitroanilide (BACHEM L-1720) and N-succinyl-Ala-Ala-Pro-Val-p-nitroanilide (BACHEM L-1770) were obtained from BACHEM (King of Prussia, Pa.).”
as §2
as §3, with “In atypical Ki determination, substrate is prepared in DMSO, and diluted into an assay buffer consisting of 50 mM HEPES, 200 mM NaCl, pH 7.5.” left out
as §4, with “Reactions” for “In a typical Ki determination, into each well of a 96 well plate is pipetted 280 mL of substrate solution, 10 mL of test compound solution, and the plate allowed to thermally equilibrate at 37° C. in a Molecular Devices plate reader for>15 minutes. Reactions”
Thrombin: Thrombin activity was assessed as the ability to hydrolyze the substrate N-succinyl-Ala-Ala-Pro-Arg-p-nitroanilide. […] Final reagent concentrations were: [thrombin]=0.5 nM, [substrate N-succinyl-Ala-Ala-Pro-Arg-p-nitroanilide]=32 mM.

human leukocyte elastase = target: T4, human leukocyte elastase (Homo sapiens, UniProt P08246); test: In vitro inhibition of purified enzymes: elastase, hydrolysis of N-succinyl-Ala-Ala-Pro-Val-p-nitroanilide
T4 construct: purchased Elastin Products (Pacific, Mo.)
T4 sequence (P08246 30-247 limits assumed): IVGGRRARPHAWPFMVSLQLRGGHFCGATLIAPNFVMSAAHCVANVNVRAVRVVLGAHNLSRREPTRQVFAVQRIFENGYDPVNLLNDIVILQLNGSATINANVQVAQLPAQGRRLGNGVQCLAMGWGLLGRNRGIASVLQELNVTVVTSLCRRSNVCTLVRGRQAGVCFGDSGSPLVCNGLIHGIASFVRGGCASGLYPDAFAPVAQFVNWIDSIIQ
Excerpt: as §1, §2, §3, §4
Elastase: Elastase activity was assessed as the ability to hydrolyze N-succinyl-Ala-Ala-Pro-Val-p-nitroanilide. Substrate solutions were prepared at a concentration of 19 mM (19 mM<<Km=89 mM) in assay buffer. Final DMSO concentration was 4.3%. Purified human leukocyte elastase was diluted into assay buffer to a concentration of 750 nM. Final reagent concentrations were: [Elastase]=25 nM, [N-succinyl-Ala-Ala-Pro-Val-p-nitroanilide]=19 mM.

human factor Xa = target: T5, human factor Xa (Homo sapiens, UniProt P00742); test: In vitro inhibition of purified enzymes: Factor X [FXa], hydrolysis of N-benzoyl-Ile-Glu-Gly-Arg-p-nitroanilide; conditions: 37° C., pH 7.5
T5 construct: purchased Enzyme Research Laboratories (South Bend)
T5 sequence (P00742 235-488 limits assumed): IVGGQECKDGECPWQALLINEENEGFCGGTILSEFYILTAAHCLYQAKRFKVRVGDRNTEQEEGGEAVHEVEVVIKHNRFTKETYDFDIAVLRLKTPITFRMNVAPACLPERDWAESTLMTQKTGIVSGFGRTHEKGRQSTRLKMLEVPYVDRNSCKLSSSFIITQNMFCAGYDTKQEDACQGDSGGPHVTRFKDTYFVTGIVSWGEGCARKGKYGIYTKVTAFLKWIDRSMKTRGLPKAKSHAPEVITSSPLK
T5 sequence (P00742 41-179 partner limits assumed): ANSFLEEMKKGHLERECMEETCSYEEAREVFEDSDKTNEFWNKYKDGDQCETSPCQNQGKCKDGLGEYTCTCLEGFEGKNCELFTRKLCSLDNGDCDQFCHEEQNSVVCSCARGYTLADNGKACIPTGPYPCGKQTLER
Excerpt: as §1, §2, §3, §4
Factor X [FXa]: FXa activity was assessed as the ability to hydrolyze the substrate N-benzoyl-Ile-Glu-Gly-Arg-p-nitroanilide hydrochloride. […] Final DMSO concentration was 4.3%. Purified activated human Factor X was diluted into assay buffer to a concentration of 300 nM. Final reagent concentrations were: [FXa]=10 nM, [N-benzoyl-Ile-Glu-Gly-Arg-p-nitroanilide hydrochloride]=51 mM.

bovine trypsin = target: T6, bovine trypsin (Bos taurus, UniProt P00760); test: In vitro inhibition of purified enzymes: trypsin, hydrolysis of N-benzoyl-Phe-Val-Arg-p-nitroanilide
T6 construct: Purified bovine trypsin was diluted into assay buffer; purchased Sigma T8642
T6 sequence (P00760 24-246): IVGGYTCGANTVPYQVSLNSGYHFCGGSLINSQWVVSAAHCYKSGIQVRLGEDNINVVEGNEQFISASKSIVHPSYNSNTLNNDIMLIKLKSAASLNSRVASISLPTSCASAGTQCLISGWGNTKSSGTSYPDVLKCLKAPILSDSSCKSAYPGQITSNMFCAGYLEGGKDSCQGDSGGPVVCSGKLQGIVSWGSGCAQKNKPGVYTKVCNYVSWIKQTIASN
Excerpt: as §1, §2, §3, §4
Trypsin: Trypsin activity was assessed as the ability to hydrolyze N-benzoyl-Phe-Val-Arg-p-nitroanilide. […] Final DMSO concentration was 4.3%. Purified bovine trypsin was diluted into assay buffer to a concentration of 120 nM. Final reagent concentrations were: [Trypsin]=4 nM, [N-benzoyl-Phe-Val-Arg-p-nitroanilide]=13 mM.

| inhibition at 12 µM (bovine α-chymotrypsin; at 12,000 nM) [%] | inhibition at 12 µM (human plasmin; at 12,000 nM) [%] | Ki (human α-thrombin) [µM] | inhibition at 12 µM (human leukocyte elastase; at 12,000 nM) [%] | Ki (human factor Xa) [µM] | inhibition at 12 µM (bovine trypsin; at 12,000 nM) [%] | inhibition at 18 µM (bovine α-chymotrypsin; at 18,000 nM) [%] | inhibition at 18 µM (human plasmin; at 18,000 nM) [%] | inhibition at 18 µM (human leukocyte elastase; at 18,000 nM) [%] | Ki (bovine trypsin; 37° C., pH 7.5) [µM] | SMILES |
| --- | --- | --- | --- | --- | --- | --- | --- | --- | --- | --- |
| 0 | 0 | 0.58 | 0 | 8.7 | 0 |  |  |  |  | Cc1ccc(NS(=O)(=O)c2ccccc2[N+](=O)[O-])c(=O)n1CC(=O)NCCONC(=N)N [Example 71, 3-(2-Nitrophenylsulfonyl)amino-6-methyl-1-[(2-guanidinooxyethyl)aminocarbonylmethyl]-2-pyridinone trifluoroacetate] |
|  |  | 0.29 |  | 1.3 |  | 0 | 0 | 0 | 1.6 | Cc1ccc(NS(=O)(=O)c2ccc3cc(Cl)ccc3c2)c(=O)n1CC(=O)NCCONC(=N)N [Example 85, 3-(6-Chloronaphthalene-2-sulfonyl)amino-6-methyl-1-[(2-guanidinooxyethyl)aminocarbonylmethyl]-2-pyridinone trifluoroacetate] |
